{"source": "patent US7999147B2", "about": "“Reduction of odors in absorbent articles” (First Quality Products, Inc., priority 2004, dated 2011)", "key": {"[1]": {"tested_on": "ammonia", "experiment": "Ammonia concentration from urine in absorbent structures sprayed with additive solution (gas dosimeter tubes)", "design": "species or system human", "details": "37° C."}, "[2]": {"tested_on": "ammonia", "experiment": "Ammonia concentration from urine in absorbent structures containing additive-treated SAP (gas dosimeter tubes)", "design": "species or system human", "details": "1.5 g SAP treated with FORESTALL (0.135 g per 13.5 g SAP) + 4.5 g fluff pulp, 37° C., donors X, Y", "description": "The following is a detailed description of the test method to measure ammonia concentrations. A series of absorbent structures are prepared according to the following. The base absorbent structure is fluff pulp or a combination of fluff and SAP. Then, for example, an aqueous solution is prepared containing a known quantity of a potential treatment for ammonia malodor. An equal quantity of the solution is sprayed onto all but one of the series of absorbent structures. The spraying is applied as uniformly as possible. One absorbent structure is sprayed with an equal volume of water and is the control. All absorbent structures are left out several hours to dry. Each of the absorbent structures is then transferred to Nalgene® Brand 125-ml, narrow-mouth polycarbonate Erlenmeyer flasks. […]\nStraughan® Gastec® ammonia gas dosimeter tubes, grade 3D, are broken off and thereby opened at one end. […] Donors collect a suitable quantity of fresh urine specimen in disposable collection cups marked with volume indications. […]\nThe flasks are then placed into a water bath set at 37° C. […] Based on discrete markings on the detector tube, the time-weighted average concentration of ammonia measured in parts per million-hour are read from the scale and recorded. […] Readings of ammonia concentrations are read up to 72 hours time or less if any of the concentrations exceed the maximum limit of the detection tube's range. […]"}, "[3]": {"experiment": "Water solubility of the additive", "assay_type": "physicochemical", "description": "Four absorbent structures are made according to Example 4 except onto three structures, 4.5 ml of an aqueous solution containing 1% M-Quat Dimer 18 is sprayed. To dissolve the additive in water, the temperature needed to be raised to about 45-60° C. M-Quat Dimer 18 is the tradename for 2-hydroxypropylene-bis-1,3-(dimethylstearylammonium chloride). […] This chemical is manufactured by BASF Corporation."}, "[4]": {"details": "4.5 ml of 1% M-Quat Dimer 18 sprayed on fluff pulp + SAP, urine, donors X, Y"}}, "note": "“And” between values parts separate entries of the source, which are not always exact repeats. Equal values may be shown once."}
{"compound": "1-propanaminium, 3-amino-N-ethyl-N,N-dimethyl-N-soya acyl derivative, ethyl sulfate", "values": [{"measurement": "Ammonia Concentration ppm-hour 56 hour reading", "setting": "[1]; 4.5 ml of 1% 1-propanaminium soya acyl derivative ethyl sulfate sprayed on fluff pulp + SAP, urine, donor Y, 56 hour", "value": 25, "unit": "ppm-hour"}, {"measurement": "Ammonia Concentration ppm-hour 72 hour reading", "setting": "[1]; 4.5 ml of 1% 1-propanaminium soya acyl derivative ethyl sulfate sprayed on fluff pulp + SAP, urine, donor Z", "value": 0, "unit": "ppm-hour"}, {"measurement": "Ammonia Concentration ppm-hour 8 hour reading", "setting": "[1]; 4.5 ml of 1% 1-propanaminium soya acyl derivative ethyl sulfate sprayed on fluff pulp + SAP, urine, donors Y, Z", "value": 0, "unit": "ppm-hour"}, {"measurement": "Ammonia Concentration ppm-hour 24 hour reading", "setting": "[1]; 4.5 ml of 1% 1-propanaminium soya acyl derivative ethyl sulfate sprayed on fluff pulp + SAP, urine, donors Y, Z, 24 hour", "value": 0, "unit": "ppm-hour"}]}
{"compound": "4-ethyl-4-soya morpholinium ethyl sulfate [FORESTALL]", "values": [{"measurement": "Ammonia Concentration ppm-hour 8 hour reading", "setting": "[1]; 4.5 ml of 1% FORESTALL sprayed on 4.5 g fluff pulp + 1.5 g SAP, fresh urine, donors X, Y, Z", "value": 0, "unit": "ppm-hour"}, {"measurement": "Ammonia Concentration ppm-hour 32 hour reading", "setting": "[2]", "value": "25 ppm-hour and 30 ppm-hour"}]}
{"compound": "CCCCCCCCCCCCCCCCCC[N+](C)(C)CC(O)C[N+](C)(C)CCCCCCCCCCCCCCCCCC.[Cl-].[Cl-]", "note": "[M-Quat Dimer 18, 2-hydroxypropylene-bis-1,3-(dimethylstearylammonium chloride)]", "values": [{"measurement": "Ammonia Concentration ppm-hour 8 hour reading", "setting": "[1]; [4]", "value": 0, "unit": "ppm-hour"}, {"measurement": "Ammonia Concentration ppm-hour 32 hour reading", "setting": "[1]; 4.5 ml of 1% M-Quat Dimer 18 sprayed on fluff pulp + SAP, urine, donors X, Y, 32 hour", "value": "12 ppm-hour and 20 ppm-hour and 23 ppm-hour"}, {"measurement": "Ammonia Concentration ppm-hour 48 hour reading", "setting": "[1]; 4.5 ml of 1% M-Quat Dimer 18 sprayed on fluff pulp + SAP, urine, donors X, Y, 48 hour", "value": "25 ppm-hour and 30 ppm-hour and 50 ppm-hour"}, {"measurement": "Ammonia Concentration ppm-hour 72 hour reading", "setting": "[1]; [4]", "value": "250 ppm-hour and 470 ppm-hour and 280 ppm-hour and 400 ppm-hour and 425 ppm-hour"}, {"measurement": "Temperature needed to dissolve the additive in water", "setting": "[3]; 1% aqueous solution", "value": "45-60 °C"}, {"measurement": "Water solubility at 37° C.", "setting": "[3]; 37° C.", "value": "not water soluble at 37 °C"}]}
{"compound": "ethylbis(hydroxyethyl)tallowalkyl ammonium ethyl sulfate", "values": [{"measurement": "Ammonia Concentration ppm-hour 8 hour reading", "setting": "[1]; 4.5 ml of 1% ethylbis(hydroxyethyl)tallowalkyl ammonium ethyl sulfate sprayed on fluff pulp + SAP, urine, donors Z, X", "value": 0, "unit": "ppm-hour"}]}
{"compound": "hydrogenated tallowalkyl(2-ethylhexyl)dimethylammonium methyl sulfate [ARQUAD HTL8-MS]", "values": [{"measurement": "Ammonia Concentration ppm-hour 8 hour reading", "setting": "[1]; 4.5 ml of 1% ARQUAD HTL8-MS sprayed on fluff pulp + SAP, urine, donors X, Y", "value": 0, "unit": "ppm-hour"}]}
